According to patent US20050182128A1, “Use of anethole dithiolethione in lung cancer chemoprevention” (priority 2002, published 2005):
“Also recorded” adds a separate entry of the source.

Tested on: bronchial dysplasia
Test: Phase IIb randomized placebo-controlled trial: histopathology grade of bronchial biopsies before and after six months
Assay type: in vivo, human
Description: One hundred and one volunteer current and former smokers with ≧30 pack-years smoking history and bronchial dysplasia identified by autofluorescence bronchoscopy directed biopsies were randomly assigned to receive ADT 25 mg orally TID or placebo for six months followed by a repeat bronchoscopy and biopsy of the same sites plus any new areas suspicious of dysplasia. Changes in the histopathology grade of the biopsies were used as the primary endpoint biomarker. All P values were two-sided.
Assessment For Eligibility. Five hundred and fifty-eight current and former smokers over 40 years of age in the Greater Vancouver area with a smoking history of ≧30 pack-years were invited to take part in the study. A former smoker was defined as one who had given up smoking for a year or more. They were recruited through the community outreach network of the public relations department of the British Columbia Cancer Agency (BCCA) using television programs, radio broadcasts and local newspapers. Following an initial interview, which included a questionnaire to document the smoking history, a sputum sample was obtained by induction using simultaneous high frequency chest wall oscillation with the ABI vest (Advanced Respiratory Inc. St. Pauls, Minn.) and 3% hypertonic saline for 12 minutes. […] Of these, 262 agreed to have an autofluorescence bronchoscopy with the LIFE-Lung device (Xillix Technologies Corp., Richmond, BC, Canada) (Lam et al., 1998; Lam et al., 1999). Biopsies were taken from areas with abnormal fluorescence (Lam et al., 1998; Lam et al., 1999). In addition, at least two control biopsies were taken from an upper or lower lobe. The average number of biopsies per subject was 6.7 (range 4 to 12).
Randomization. Participants with one or more sites of bronchial dysplasia were randomly assigned to receive either Sialor® (Solvay Pharma, France) at a dose of 25 mg three times daily by mouth or its placebo for six months. The placebo tablets were identical in size, shape and color to the active drug. Randomization codes were generated by a statistician at the Population and Prevention Oncology Division of BCCA and distributed to the BCCA pharmacy. All study personnel were blinded to the study coeds. Randomization was stratified according to the smoking status (current or former smoker) and dysplasia grade (mild, moderate or severe). Once a participant met the enrollment criteria, the study nurse contacted the pharmacist who then provided the study medication according to the randomization code.
Follow Up. The participants were seen monthly for examination of drug related adverse events. Liver enzymes were measured at baseline and at months 3 and 6 for toxicity monitoring. Fluorescence bronchoscopy was repeated after 6 months of study medication. The bronchoscopist was blinded to the intervention assignment. All previously biopsied sites were identified and re-biopsied under fluorescence bronchoscopy. Biopsy was also taken from new areas with abnormal fluorescence.
The primary outcome of the study was changes in the histopathology grade of the bronchial biopsies before and after six months of intervention. The secondary endpoint was changes in the nuclear morphometry index of the bronchial biopsies.
The biopsies were fixed in buffered formalin, embedded in paraffin, sectioned and stained with hematoxylin-eosin (H&E). Two pathologists (JCL, AFG) systematically reviewed them. The pathologists were blinded to the treatment assignments. All biopsies were classified into one of seven groups. Normal: as represented by pseudostratified ciliated columnar epithelium. Basal cell hyperplasia: as represented by an increase in the number and stratification of normal-appearing basal cells still covered with normal ciliated or mucin secreting cells. Metaplasia: as represented by a stratified epithelium and cytoplasmic changes consistent with squamoid differentiation. […]

[1] = histopathology, lesion specific, 6 months
[2] = histopathology, person specific, of 56

COc1ccc(-c2cc(=S)ss2)cc1 [ADT, 5-(p-methoxyphenyl)-1,2-dithiole-3-thione]
Progression of pre-existing dysplastic lesions and/or appearance of new lesions compared to placebo (6 months, 25 mg orally TID): significantly lower rate of progression; also recorded: statistically reduces the appearances of new dysplastic lesion or progression of pre-existing dysplastic lesions
CR or PD rates, full dose compared to reduced dose (all P-values >0.90): no significant difference in the CR or PD rates
Biopsies of grade 1 (normal/hyperplasia) at 6 months follow-up (baseline grade 1): 100
Biopsies of grade 2 (metaplasia) at 6 months follow-up (baseline grade 1): 9
Biopsies of grade 3 (mild dysplasia) at 6 months follow-up (baseline grade 1): 5
Biopsies of grade 4 (moderate dysplasia) at 6 months follow-up (baseline grade 1): 2
Biopsies of grade 5 (severe dysplasia) at 6 months follow-up (baseline grade 1): 0
Biopsies of grade 1 (normal/hyperplasia) at 6 months follow-up (baseline grade 2): 22
Biopsies of grade 2 (metaplasia) at 6 months follow-up (baseline grade 2): 2
Biopsies of grade 3 (mild dysplasia) at 6 months follow-up (baseline grade 2): 3
Biopsies of grade 4 (moderate dysplasia) at 6 months follow-up (baseline grade 2): 0
Biopsies of grade 5 (severe dysplasia) at 6 months follow-up (baseline grade 2): 0
Biopsies of grade 1 (normal/hyperplasia) at 6 months follow-up (baseline grade 3): 53
Biopsies of grade 2 (metaplasia) at 6 months follow-up (baseline grade 3): 14
Biopsies of grade 3 (mild dysplasia) at 6 months follow-up (baseline grade 3): 27
Biopsies of grade 4 (moderate dysplasia) at 6 months follow-up (baseline grade 3): 6
Biopsies of grade 5 (severe dysplasia) at 6 months follow-up (baseline grade 3): 0
Biopsies of grade 1 (normal/hyperplasia) at 6 months follow-up (baseline grade 4): 8
Biopsies of grade 2 (metaplasia) at 6 months follow-up (baseline grade 4): 0
Biopsies of grade 3 (mild dysplasia) at 6 months follow-up (baseline grade 4): 2
Biopsies of grade 4 (moderate dysplasia) at 6 months follow-up (baseline grade 4): 3
Biopsies of grade 5 (severe dysplasia) at 6 months follow-up (baseline grade 4): 1
Biopsies of grade 1 (normal/hyperplasia) at 6 months follow-up (baseline grade 5): 0
Biopsies of grade 2 (metaplasia) at 6 months follow-up (baseline grade 5): 0
Biopsies of grade 3 (mild dysplasia) at 6 months follow-up (baseline grade 5): 2
Biopsies of grade 4 (moderate dysplasia) at 6 months follow-up (baseline grade 5): 0
Biopsies of grade 5 (severe dysplasia) at 6 months follow-up (baseline grade 5): 0
Biopsies of grade 1 (normal/hyperplasia) at 6 months follow-up (baseline: not sampled): 34
Biopsies of grade 2 (metaplasia) at 6 months follow-up (baseline: not sampled): 8
Biopsies of grade 3 (mild dysplasia) at 6 months follow-up (baseline: not sampled): 13
Biopsies of grade 4 (moderate dysplasia) at 6 months follow-up (baseline: not sampled): 0
Biopsies of grade 5 (severe dysplasia) at 6 months follow-up (baseline: not sampled): 1
CR rate (dose reduction yes): 24%
PD rate (dose reduction yes): 32%
PR rate (dose reduction yes): 32%
CR, number of participants (dose reduction yes, of 25): 6
PD, number of participants (dose reduction yes, of 25): 8
PR, number of participants (dose reduction yes, of 25): 8
PD rate lower than placebo, person specific analysis (histopathology, 6 months): 22%
Partial response (PR) rate, person specific analysis (histopathology, 6 months): (23%)
Stable disease (SD) rate, person specific analysis (histopathology, 6 months): (18%)
Progressive disease (PD) rate, lesion specific analysis (histopathology, 6 months ADT 25 mg orally TID, placebo 17%, P<0.001): 8%
Complete response (CR) rate, lesion specific analysis (histopathology, 6 months, placebo 41%, P=0.14): 53%
PD rate lower than placebo, lesion specific analysis (histopathology, 8% ADT versus 17% placebo): 9%
CR rate higher than placebo, person specific analysis (histopathology, 27% versus 16%): 11%
CR rate higher than placebo, lesion specific analysis (histopathology, 53% versus 41%, not significant): 12%
CR lesions / dysplastic lesions at baseline [1]: 61/116
PD lesions / all biopsies [1]: 24/315
CR, number of participants [2]: 15
PD, number of participants [2]: 18
PR, number of participants [2]: 13
Association of treatment with odds of CR (multiple logistic regression): not significantly associated with increasing odds of CR
OR, likelihood of progressive disease six months after intervention (multiple logistic regression, ADT is reference, placebo OR 3.5 (95% CI 1.3-9.3, P 0.01)): 1
PD rate (no dose reduction): 32%
PR rate (no dose reduction): 16%
CR rate (no dose reduction (full 25 mg TID)): 29%
CR, number of participants (no dose reduction (full 25 mg TID), of 31): 9
PD, number of participants (no dose reduction, of 31): 10
PR, number of participants (no dose reduction, of 31): 5
Biopsies of grade 1 (normal/hyperplasia) at 6 months follow-up (total of all baseline grades): 217
Biopsies of grade 2 (metaplasia) at 6 months follow-up (total of all baseline grades): 33
Biopsies of grade 3 (mild dysplasia) at 6 months follow-up (total of all baseline grades): 52
Biopsies of grade 4 (moderate dysplasia) at 6 months follow-up (total of all baseline grades): 11
Biopsies of grade 5 (severe dysplasia) at 6 months follow-up (total of all baseline grades): 2
